In patent US20250163038A1, “CBL-B MODULATORS AND USES THEREOF” (Nimbus Clio, Inc., priority 2021, published 2025) one finds IC50 and EC50 data, which are given here for 16 compounds.

Molecules are shown by their SMILES.

In assay [1] the target is Recombinant human Cbl-b (aa 36-427) (Homo sapiens, UniProt Q13191). Description: Cbl-b Biochemical Assay (TR-FRET). To be noted: read-out: TR-FRET hCbl-b IC50.
Assay [2] deals with Jurkat (clone E6-1) cells with NFAT luciferase reporter. Nature of the assay: Jurkat reporter assay (NFAT Luciferase). The assay is classed as cell-based. The settings on record: Homo sapiens; Jurkat NFAT luciferase reporter cells, anti-CD3 stimulation, 6 hr; read-out: Jurkat NFAT EC50.
Assay [3] concerns the target T1, Recombinant human c-Cbl (aa 47-435) (Homo sapiens, UniProt P22681).
T1 sequence (P22681 47-435): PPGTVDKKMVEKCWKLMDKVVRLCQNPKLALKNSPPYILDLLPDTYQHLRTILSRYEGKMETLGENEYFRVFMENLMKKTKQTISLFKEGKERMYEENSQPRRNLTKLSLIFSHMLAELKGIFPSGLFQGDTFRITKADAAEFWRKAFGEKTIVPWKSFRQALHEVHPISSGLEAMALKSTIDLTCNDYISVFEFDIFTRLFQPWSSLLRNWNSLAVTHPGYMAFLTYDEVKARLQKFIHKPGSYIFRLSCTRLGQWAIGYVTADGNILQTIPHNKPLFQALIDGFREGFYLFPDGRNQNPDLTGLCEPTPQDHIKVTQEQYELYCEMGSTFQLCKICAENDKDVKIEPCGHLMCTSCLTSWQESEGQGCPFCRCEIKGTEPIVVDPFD
Description: c-Cbl Biochemical Assay (TR-FRET). To be noted: hc-Cbl Biochemical Assay (TR-FRET); read-out: TR-FRET hcCbl IC50.

Recombinant human Cbl-b (aa 36-427), sequence (Q13191 36-427): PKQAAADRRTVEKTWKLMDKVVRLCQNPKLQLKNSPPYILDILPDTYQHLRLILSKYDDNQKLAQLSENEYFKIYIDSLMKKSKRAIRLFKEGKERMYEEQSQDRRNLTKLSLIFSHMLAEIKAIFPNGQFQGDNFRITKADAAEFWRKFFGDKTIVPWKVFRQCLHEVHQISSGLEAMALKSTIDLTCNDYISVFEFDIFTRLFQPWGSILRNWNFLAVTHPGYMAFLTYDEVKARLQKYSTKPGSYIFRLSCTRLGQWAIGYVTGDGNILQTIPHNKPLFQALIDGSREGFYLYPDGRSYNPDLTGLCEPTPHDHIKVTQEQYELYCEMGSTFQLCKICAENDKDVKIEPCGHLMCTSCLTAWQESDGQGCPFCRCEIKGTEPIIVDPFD

For `Cn1cnnc1-c1cc(F)ccc1-c1cccc(-c2nc3cc(CN[C@@H]4CCC[C@@H]4O)ccc3o2)c1` [CM-1, (1S,2R)-2-(((2-(4′-Fluoro-2′-(4-methyl-4H-1,2,4-triazol-3-yl)-[1,1′-biphenyl]-3-yl)benzo[d]oxazol-5-yl)methyl)amino)cyclopentan-1-ol], the concentration for half-maximal inhibition (IC50) in assay [1] and in assay [3] was less than 200 nM throughout. Moreover, in assay [2], the EC50 was less than 200 nM.

In the case of `CO[C@H]1CCC[C@H]1N(C)Cc1cc(C(F)(F)F)c2oc(-c3cccc(-c4ccc(F)cc4-c4nncn4C)c3)nc2c1` [CN-5, (1R,2S)—N-((2-(4′-Fluoro-2′-(4-methyl-4H-1,2,4-triazol-3-yl)-[1,1′-biphenyl]-3-yl)-7-(trifluoromethyl)benzo[d]oxazol-5-yl)methyl)-2-methoxy-N-methylcyclopentan-1-amine], the half-maximal inhibitory concentration (IC50) in assay [1] is less than 200 nM; in assay [3], 200 to 1000 nM. Further, the EC50 in assay [2] lay in the range of 200 to 1000 nM.

As to `Cn1cnnc1-c1cc(C#N)ccc1-c1cccc(-c2nc3cc(CN[C@@H]4CCC[C@@H]4O)cc(C(F)(F)F)c3o2)c1` [CP-4, 3′-(5-((((1R,2S)-2-Hydroxycyclopentyl)amino)methyl)-7-(trifluoromethyl)benzo[d]oxazol-2-yl)-2-(4-methyl-4H-1,2,4-triazol-3-yl)-[1,1′-biphenyl]-4-carbonitrile], the IC50 in assay [1] and in assay [3] was less than 200 nM in each case. Also, the EC50 in assay [2] is less than 200 nM.

As to `Cn1cnnc1-c1cc(F)ccc1-c1cccc(-c2nc3cc(CNCC4(O)CC(F)(F)C4)cc(C(F)(F)F)c3o2)c1` [CQ-1, 3,3-Difluoro-1-((((2-(4′-fluoro-2′-(4-methyl-4H-1,2,4-triazol-3-yl)-[1,1′-biphenyl]-3-yl)-7-(trifluoromethyl)benzo[d]oxazol-5-yl)methyl)amino)methyl)cyclobutan-1-ol], the IC50 in assay [1] and in assay [3] was less than 200 nM in each case. In addition, in assay [2], the EC50 is less than 200 nM.

`CCN(CC[C@@H](O)C(F)(F)F)Cc1cc(C(F)(F)F)c2oc(-c3cccc(-c4ccc(F)cc4-c4nncn4C)c3)nc2c1` [CR-2]: the IC50 in assay [1] and in assay [3] was less than 200 nM each time. The EC50 in assay [2] lay within 200 to 1000 nM.

`Cn1cnnc1-c1cc(F)ccc1-c1cccc(-c2nc3cc(CNC[C@@H](O)C(F)(F)F)cc(C(F)(F)F)c3o2)c1` [CR-3, (R)-1,1,1-trifluoro-3-(((2-(4′-fluoro-2′-(4-methyl-4H-1,2,4-triazol-3-yl)-[1,1′-biphenyl]-3-yl)-7-(trifluoromethyl)benzo[d]oxazol-5-yl)methyl)amino)propan-2-ol]: the IC50 in assay [1] and in assay [3] was less than 200 nM in each case. Besides, the EC50 in assay [2] is less than 200 nM.

As for `Cn1cnnc1-c1cc(F)ccc1-c1cccc(-c2nc3cc(CNCC4(C#N)CCCC4)cc(C(F)(F)F)c3[nH]2)c1` [CS-1, 1-((((2-(4′-Fluoro-2′-(4-methyl-4H-1,2,4-triazol-3-yl)-[1,1′-biphenyl]-3-yl)-7-(trifluoromethyl)-1H-benzo[d]imidazol-5-yl)methyl)amino)methyl)cyclopentane-1-carbonitrile], the IC50 in assay [1] and in assay [3] was less than 200 nM each time. Besides, the EC50 in assay [2] was 200 to 1000 nM.

Take `Cn1cnnc1-c1cc(F)ccc1-c1cccc(-c2nc3cc(CNCC4(C#N)CCOCC4)cc(C(F)(F)F)c3[nH]2)c1` [CT-2, 4-((((2-(4′-Fluoro-2′-(4-methyl-4H-1,2,4-triazol-3-yl)-[1,1′-biphenyl]-3-yl)-7-(trifluoromethyl)-1H-benzo[d]imidazol-5-yl)methyl)amino)methyl)tetrahydro-2H-pyran-4-carbonitrile]: the figures for the IC50 in assay [1] and in assay [3] were less than 200 nM and 200 to 1000 nM, respectively. Further, the EC50 in assay [2] is 200 to 1000 nM.

Turning to `Cn1cnnc1-c1cc(F)ccc1-c1cccc(-c2nc3cc(CNC[C@@H]4CCC(=O)N4)cc(C(F)(F)F)c3o2)c1` [CU-2, (S)-5-((((2-(4′-Fluoro-2′-(4-methyl-4H-1,2,4-triazol-3-yl)-[1,1′-biphenyl]-3-yl)-7-(trifluoromethyl)benzo[d]oxazol-5-yl)methyl)amino)methyl)pyrrolidin-2-one], the IC50 in assay [1] and in assay [3] was less than 200 nM each time. In assay [2], the half-maximal effective concentration (EC50) lay in the range of 200 to 1000 nM.

For `Cn1cnnc1-c1cc(F)ccc1-c1cccc(-c2nc3cc(CN[C@@H]4CCC[C@@H]4F)cc(C(F)(F)F)c3o2)c1` [CW-5, (1R,2S)-2-Fluoro-N-((2-(4′-fluoro-2′-(4-methyl-4H-1,2,4-triazol-3-yl)-[1,1′-biphenyl]-3-yl)-7-(trifluoromethyl)benzo[d]oxazol-5-yl)methyl)cyclopentan-1-amine], the IC50 in assay [1] and in assay [3] was less than 200 nM in each case. For the same compound, in assay [2], the EC50 was less than 200 nM.

As for `Cn1cnnc1-c1cc(F)ccc1-c1cccc(-c2nc3cc(CNCC4(C#N)CCCC4)cc(C(F)(F)F)c3o2)c1` [CX-1, 1-((((2-(4′-Fluoro-2′-(4-methyl-4H-1,2,4-triazol-3-yl)-[1,1′-biphenyl]-3-yl)-7-(trifluoromethyl)benzo[d]oxazol-5-yl)methyl)amino)methyl)cyclopentane-1-carbonitrile], the IC50 in assay [1] and in assay [3] was less than 200 nM in each case. Besides, the EC50 in assay [2] lay within 200 to 1000 nM.

For `Cn1cnnc1-c1cc(F)ccc1-c1cccc(-c2nc3cc(CN4C(=O)O[C@H]5CCC[C@H]54)cc(C(F)(F)F)c3o2)c1` [CY-1, (3aR,6aS)-3-((2-(4′-Fluoro-2′-(4-methyl-4H-1,2,4-triazol-3-yl)-[1,1′-biphenyl]-3-yl)-7-(trifluoromethyl)benzo[d]oxazol-5-yl)methyl)hexahydro-2H-cyclopenta[d]oxazol-2-one], the IC50 in assay [1] is less than 200 nM; in assay [3], 200 to 1000 nM. Besides, the EC50 in assay [2] lay within 1000 to 10000 nM.

Turning to `Cn1cnnc1-c1cc(F)ccc1-c1cccc(-c2nc3cc(CNCC(O)(C(F)(F)F)C(F)(F)F)cc(C(F)(F)F)c3o2)c1` [CZ-2, 1,1,1,3,3,3-Hexafluoro-2-((((2-(4′-fluoro-2′-(4-methyl-4H-1,2,4-triazol-3-yl)-[1,1′-biphenyl]-3-yl)-7-(trifluoromethyl)benzo[d]oxazol-5-yl)methyl)amino)methyl)propan-2-ol], the IC50 in assay [1] and in assay [3] was less than 200 nM throughout. For the same compound, the EC50 in assay [2] fell in the range of 200 to 1000 nM.

For `Cn1cnnc1-c1cc(F)ccc1-c1cccc(-c2nc3cc(CNCC(C)(C)F)cc(C(F)(F)F)c3o2)c1` [DA-1, 2-Fluoro-N-((2-(4′-fluoro-2′-(4-methyl-4H-1,2,4-triazol-3-yl)-[1,1′-biphenyl]-3-yl)-7-(trifluoromethyl)benzo[d]oxazol-5-yl)methyl)-2-methylpropan-1-amine], the IC50 in assay [1] and in assay [3] was less than 200 nM each time. The EC50 in assay [2] was less than 200 nM.

In the case of `Cn1cnnc1-c1cc(F)ccc1-c1cccc(-c2nc3ccc(CN[C@@H]4CCC[C@@H]4O)cc3o2)c1` [DD-2, (1S,2R)-2-(((2-(4′-Fluoro-2′-(4-methyl-4H-1,2,4-triazol-3-yl)-[1,1′-biphenyl]-3-yl)benzo[d]oxazol-6-yl)methyl)amino)cyclopentan-1-ol], the IC50 is less than 200 nM in assay [1] and 200 to 1000 nM in assay [3]. The EC50 in assay [2] was in the range of 1000 to 10000 nM.

As to `COC1(CNCc2cc(C(F)(F)F)c3oc(-c4cccc(-c5ccc(F)cc5-c5nncn5C)c4)nc3c2)CCC1` [DE-2, 1-(2-(4′-Fluoro-2′-(4-methyl-4H-1,2,4-triazol-3-yl)-[1,1′-biphenyl]-3-yl)-7-(trifluoromethyl)benzo[d]oxazol-5-yl)-N-((1-methoxycyclobutyl)methyl)methanamine], the IC50 in assay [1] and in assay [3] was less than 200 nM in each case. In assay [2], the EC50 is 200 to 1000 nM.

As a reminder, the IC50 is the concentration that inhibits the measured activity by half. A word on the EC50: it is the concentration at which the effect is half-maximal.
